“And” between values parts separate entries of the source, which are not always exact repeats. Identical values can stand only once. Like-named read-outs stand apart in the source and are kept apart here.
Tests used:
[1] = FRAP (ferric reducing antioxidant power) assay; assay type: biochemical; settings: Trolox equivalent
Description: Three in vitro antioxidant assays (DPPH, FRAP, and ABTS) were utilized to evaluate the antioxidant property of the synthesized compounds. The DPPH (α, α-diphenyl-β-picrylhydrazyl) assay is the well-known approach to determine antioxidant activity using a stable free radical DPPH, measure the absorbance change, and calculate the absorbance change in the percentage of scavenging activity. […] For example, the ferric-tripyridyltriazine (Fe^3+-TPTZ, colorless) complex is reduced to ferrous tripyridyltriazine (Fe^2+-TPTZ) at low pH and introduces a blue color with maximum absorption at 593 nm. The change in absorbance is related to antioxidant activity. However, a significant limitation of these in vitro tests is the non-physiological measurement conditions (no enzymatic condition and no transition metal ion chelating activity); therefore, the results obtained may not reflect the antioxidant activity of the source material under the biological conditions that exist in humans and animals. The ABTS assay involves a more drastic radical that is chemically produced. The use of ABTS for antioxidant activity determination of hydrophilic and lipophilic pure compounds has attracted interest due to its solubility in organic and aqueous media and stability in a wide pH range [31].
The FRAP assay is a method for assessing antioxidant power. Briefly, the FRAP reagent was prepared from acetate buffer pH 3.6, 10 mM TPTZ solution in 40 mM HCl and 20 mM FeCl3.6 H2O in relative proportions of 10:1:1, v/v, respectively. The FRAP reagent was freshly prepared daily. A solution of 5 μL of the sample (3–300 μM, approx.) was mixed with 180 μL of the FRAP reagent in a 96-well plate. The mixture was shaken in the dark for 10 min and incubated at 37 °C for 20 min, and the absorbance was determined at 593 nm. The solution without the sample was used as a blank. All determinations were made in triplicate. Trolox was used as a standard antioxidant and plot the calibration curve between absorbance and concentration. Quercetin was applied as the reference compound. The FRAP values were calculated by comparing the absorbance change in the test sample and represented in μM of Trolox equivalent per μM of sample.

HeLa cell = test: MTT anticancer activity assay, HeLa cells; assay type: cell-based; settings: for IC50 / viability at 100 µM: Homo sapiens; for IC50 / Anticancer activity on cervical cancer cells: HeLa
Method: (§1) HEK293, HACAT, and HeLa cells were grown in modified Eagles’ minimum essential medium (EMEM, Gibco) with 10% fetal bovine serum (FBS, Gibco), 1% of 100 U/mL streptomycin and 100 U/mL penicillin (Gibco). Cells were seeded in culture flasks and maintained in an incubator at 37 °C in a humidified atmosphere with 5% CO2. After reaching 80–90% of confluence, cells were detached by incubation with 0.25% trypsin-0.2% EDTA (Gibco) for 5 min and plated for experiments.
(§2) This study examined cell cultures of HEK293, HACAT, and HeLa cells. The cytotoxicity of the test samples was carried out by the MTT (3-(4,5-dimethylthiazol-2-yl)-2,5-diphenyltetrazolium bromide) assay. The cells were seeded in 96-well microliter plates (2.0 × 10^4 cells/well). Stock solutions of the test compounds were prepared in DMSO. After 24 h, cells were treated with different concentrations of samples and diluted with media to obtain the final desired concentration. The treated cells were then incubated at 37 °C and 5% CO2 for 24 and 48 h. After incubation, the medium was replaced with 0.05% w/v of MTT solution in PBS and further incubated for 3 h. The solution was then discarded and DMSO was added to dissolve the formed formazan crystals. Each well’s absorbance (A) was measured at 570 nm using a microplate reader (FLUOstar Omega^TM, BMG Labtech, Ortenberg, Germany). All experiments were carried out in triplicate and repeated for at least three experiments.

[2] = MTT cytotoxicity assay, HEK293 cells; assay type: cell-based; settings: human, HEK293 cells, 100 μM; for viability at 24 h, 100 µM: read-out: % Viability ± SD (at 100 μM) HEK293 24 h; for viability at 48 h, 100 µM: read-out: % Viability ± SD (at 100 μM) HEK293 48 h
Method: as §1, §2

HEK293 cells = test: Cell migration scratch assay, HEK293; assay type: cell-based; settings: HEK293, 100 μM, 24 and 48 h
Method: Cell migration in the HEK293 and the HeLa cell lines was investigated. The assay was conducted to investigate cell maintenance after being damaged. The active samples from in vitro antioxidant activity were examined. Cells were grown in a 24-well plate until 80% confluence and treated with 2f and 2j for 24 or 48 h compared to the untreated control. The cells in each well were then scratched to create a wound area across the center of the plates using a plastic 20 μL pipette tip. Cell images were taken immediately, and the scratch area was measured at 0, 24, and 48 h. During the experiment, the percentage of wound area was tracked as an indirect assessment. Compared to the control, the percentage of empty area change at each time point was quantified with a Nikon eclipse Ts2R inverted microscope.
Figure 7 A scratch assay was performed to examine the migration ability of synthesized compounds 2f and 2j at 100 μM compared with untreated control. Representative pictures of the assay induce the migration of HEK cells using quercetin as a reference. Pictures were taken at the start of the experiment (0 h) 24 and 48 h later. Pictures of representative experiments are shown, and the relative migration of cells is represented with a bar graph; means ± SD (n = 3; *: p < 0.05 and **: p < 0.001, Turkey HSD), Scale bars represent 500 μm.

HeLa cells = test: Cell cycle analysis by flow cytometry; assay type: cell-based; settings: 24 h, 2f, 2j, quercetin at IC50, paclitaxel 5 μM
Method: The paclitaxel (5 μM) was performed as the positive control.
The treatment of HeLa cells and compounds was the same as in the apoptosis protocol. The cells were harvested for 200 μL and centrifuged at 600× g for 5 min and washed with PBS. The mixing cells were slowly added 200 μL of ice-cold 70% ethanol and incubated for at least 3 h at −20 °C. Cells were centrifuged and washed with PBS. Finally, cells were stained with 200 μL of Muse® cell cycle reagent and incubated at room temperature for 30 min in the dark. The cell was analyzed by flow cytometry (Guava Muse Cell Analyzer, Luminex, Austin, TX, USA).

[3] = 24 h, read-out: % Viability ± SD (at 100 μM) HeLa 24 h
[4] = 48 h, read-out: % Viability ± SD (at 100 μM) HeLa 48 h

Row | Structure (SMILES) | FRAP593nm Value ± SD (TE) [1] | IC50 (HeLa cell; 24 h) [µM] | viability at 100 µM (HeLa cell; [3]) [%] | viability at 100 µM (HeLa cell; [4]) [%] | viability at 24 h, 100 µM [2] [%] | viability at 48 h, 100 µM [2] [%] | Cell migration vs untreated (HEK293 cells) | Cell cycle phase arrest (HeLa cells) | Cell population in G0/G1 phase (HeLa cells) [%] | Cell population in G2/M phase (HeLa cells) [%] | Cell population in S phase (HeLa cells) | Cell population in S phase (HeLa cells; listed as quercetin) [%] | Anticancer activity on cervical cancer cells (HeLa cell; 24 h)
1 | O=c1c(O)c(-c2ccc(O)c(O)c2)oc2cc(O)cc(O)c12 [Quercetin, quercetin, reference compound] | 3.35 ± 0.231 µM Trolox/1 µM of Synthesized Compounds | 192.4 ± 1.27 | 69.1 ± 1.93 | 19.2 ± 0.25 | 102 ± 1.58 | 86.6 ± 4.66 | significant induction of cell migration | S phase arrest | 35.72 ± 2.67 | 26.40 ± 0.18 | 37.88 ± 2.75 % | 37.88 | 
2 | O=C(c1ccccc1)c1c(-c2ccccc2)oc2c(O)c(O)ccc2c1=O [2f, 3-Benzoyl-7,8-dihydroxy-2-phenyl-4H-chromen-4-one] | 1.70 ± 0.138 µM Trolox/1 µM of Synthesized Compounds | 191 ± 6.01 | 109.3 ± 0.92 | 29.2 ± 0.4 | 105 ± 1.19 | 74.7 ± 0.83 | significant induction of cell migration | S phase arrest | 41.26 ± 1.21 | 24.71 ± 4.02 | 34.03% and 34.03 ± 3.81 % |  | contained anticancer activity
3 | O=C(Oc1ccc2c(=O)c(C(=O)c3ccccc3)c(-c3ccccc3)oc2c1O)c1ccccc1 [2j, 3-Benzoyl-8-hydroxy-4-oxo-2-phenyl-4H-chromen-7-yl benzoate] | 0.34 ± 0.078 µM Trolox/1 µM of Synthesized Compounds | 101 ± 3.18 | 65.2 ± 1.42 | 30 ± 1.23 | 96 ± 2.62 | 71.6 ± 5.19 | significant induction of cell migration | S phase arrest | 32.90 ± 4.05 | 35.49 ± 4.98 | 31.61% and 31.61 ± 0.93 % |  | contained anticancer activity

From PMC10096453, “One-Pot Synthesis and Evaluation of Antioxidative Stress and Anticancer Properties of an Active Chromone Derivative” (Molecules, 2023)
